≈ marks a conversion by molar mass, not a printed value.

Broadly, the MIC is the lowest concentration that inhibits growth of the organism.

Data set [1] deals with Pseudomonas aeruginosa AJ 2116. Description: Minimum Inhibitory Concentration (MIC) against Pseudomonas aeruginosa AJ 2116 in a culture. The format is cell-based. The following applies: AJ2116, minimum concentration required to inhibit growth of test organism in a culture. How it is done: Antibacterial activity was determined with regards to the compounds produced in the examples described above. Some of Comparative Minimum Inhibitory Concentrations (MIC) (the minimum concentration of the compound in micrograms per milliliter required to inhibit the growth of the test organism in a culture) obtained using Pseudomonas aeruginosa AJ 2116 as the test organism, are presented in Table 5.

Data set [2] can be described thus: Concentration in blood after oral administration to mice (oral absorption). The class given is in vivo. Conditions: Mouse (ICR 5W male), oral 50 mg/kg; for concentration at 0.5 h: 30 minutes; for concentration at 1 h: 60 minutes; for concentration at 1.5 h: 90 minutes. An excerpt:
The imidazolecarboxylic acid derivatives of the present invention have a good oral absorption, as is evident from Table 6.
Concentration in Blood (μg/ml)

In data set [1], `CC1(C)S[C@@H]2[C@H](NC(=O)[C@H](N)c3ccccc3)C(=O)N2[C@H]1C(=O)O` [Ampicillin, reference compound] gave a minimal inhibitory concentration (MIC) of more than 500 µg/mL. For the same molecule, in data set [2], the concentration at 0.5 h came out at 81 µg/mL, the concentration at 1 h was 306 µg/mL and the concentration at 1.5 h turned out to be 41 µg/mL.

In data set [1], `CC1(C)S[C@@H]2[C@H](NC(=O)C(C(=O)O)c3ccccc3)C(=O)N2[C@H]1C(=O)O` (stereo partly drawn) [Carbenicillin, reference compound] had an MIC of 100 µg/mL (≈ 264 µM).

In data set [1], `CC1(C)S[C@@H]2[C@H](NC(=O)[C@H](NC(=O)c3[nH]cnc3[N+](=O)[O-])c3ccccc3)C(=O)N2[C@H]1C(=O)O` [Example 1, D-α-(4-nitroimidazole-5-carboxyamide) benzyl penicillin] had a minimal inhibitory concentration (MIC) of 12.5 µg/mL (≈ 25.6 µM).

As for `CC1(C)S[C@@H]2[C@H](NC(=O)[C@H](NC(=O)c3[nH]cnc3Cl)c3ccccc3)C(=O)N2[C@H]1C(=O)O` [Example 3], 25 µg/mL (≈ 52.3 µM) was the least that counted as inhibitory in data set [1] (MIC).

For `Cc1nc(S)[nH]c1C(=O)N[C@@H](C(=O)N[C@@H]1C(=O)N2[C@@H]1SC(C)(C)[C@@H]2C(=O)O)c1ccccc1` [Example 8], 25 µg/mL (≈ 51.1 µM) was the least that counted as inhibitory in data set [1] (MIC).

`CCOC(=O)c1nc[nH]c1C(=O)N[C@@H](C(=O)N[C@@H]1C(=O)N2[C@@H]1SC(C)(C)[C@@H]2C(=O)O)c1ccccc1` [Example 13, D-α-(4-ethoxycarbonylimidazole-5-carboxyamide) benzylpenicillin]: the MIC in data set [1] was 25 µg/mL (≈ 48.5 µM). In data set [2], the concentration at 0.5 h turned out to be 340 µg/mL, the concentration at 1 h was 97 µg/mL and the concentration at 1.5 h was 40 µg/mL.

The values above are taken from patent US4451399A, “Imidazolecarboxylic acid derivatives” (priority 1979, dated 1984).
